Laboratory results published in ChEMBL document CHEMBL4715870, “Synthesis and Structure-Activity Relationship of Tetra-Substituted Cyclohexyl Diol Inhibitors of Proviral Insertion of Moloney Virus (PIM) Kinases” (J Med Chem, 2020).

What was measured:
physchem = details: buffer, pH 7.4
in vitro = details: human, Caco-2

With `C[C@@H]1C[C@H](N)C[C@H](c2ccncc2NC(=O)c2ccc(F)c(-c3c(F)cccc3F)n2)C1` [LGH-447] the logD (physchem) was 1.9 and the Papp A→B (in vitro) was 8.5 ×10⁻⁶ cm/s.
With `C[C@H]1C[C@@H](c2ccncc2NC(=O)c2ccc(F)c(-c3c(F)cccc3F)n2)C[C@@H](O)[C@@H]1O` the logD (physchem) was 3 and the Papp A→B (in vitro) was 28.8 ×10⁻⁶ cm/s.
